# According to patent US20230312587A1, “PTERIDINONE COMPOUNDS AND USES THEREOF” (Vertex Pharmaceutical Incorporated, priority 2018, published 2023):
# Assays:
# [1] = system: Colo205-TCF/LEF-Luciferase (Luc) tumor; experiment: In vivo inhibition of TCF/LEF reporter activity in Colo-205 tumors; parameters: concentration or dose not given beside the values; details: TCF/LEF luciferase reporter in Colo-205 tumors, nu/nu mice, oral gavage
# Description: Colo205-TCF/LEF-Luciferase (Luc) tumor cells were expanded in complete DMEM cell culture media [DMEM (Life Technologies, product #11960-051) media supplemented with 10% FBS (Hyclone, catalog #SH30071.03), antimycotic/antibiotic (Life Technologies, product #15240-062), and Glutamax (Life Technologies, product #35050-061)] with 1 ug/ml puromycin. After reaching confluency/high density, the loosely attached cells in media were transferred from the flask to 50 ml conical tubes. Tumor cells adhered to plastic were detached with trypsin and combined with cells in the conical tubes. The tumor cells were triturated, counted, and pelleted by centrifugation. Cell pellets were resuspended in 0.9% injectable saline (6×10^7 cells/ml). A 50 ul volume (3×10^6 cells) was injected subcutaneously in the flanks of 4-6 wk old female nu/nu mice (Charles River Laboratories). Approximately 13-16 days after implantation, tumors between 200-500 mm^3 were selected (based on caliper measurements and applying the formula […]) and randomized into groups of n=4. Mice were dosed by oral gavage with compound dissolved in 1:3:5:1 EtOH:DMSO:PEG-400:H2O at a rate of 10 ml/kg or 1:3:5:1 EtOH:DMSO:PEG-400:H2O alone (Vehicle Control). Tumors were collected from mice euthanized by CO2 inhalation and snap frozen in liquid nitrogen. Tumors were stored in a −80 degrees C. freezer until they were processed.
# Tumors were thawed on ice and homogenized in cold Lysis Buffer (20 mM Tris-HCl (pH 7.5), 150 mM NaCl, 1 mM Na2EDTA, 1 mM EGTA, 1% Triton, 2.5 mM sodium pyrophosphate, 1 mM beta-glycerophosphate, 1 mM Na3VO4, 1 μg/ml leupeptin, 0.05% SDS) using a closed tissue grinder system (Fisher Scientific, Cat #02-542-09) on ice according to manufacturer's instructions. For 100 mg of tumor, 500 uL of Lysis Buffer was used. Tumor lysate was transferred to a pre-chilled microcentrifuge tube and centrifuged at 10,000×g for 10 minutes at 4 degrees C. Supernatant was transferred to a new pre-chilled microcentrifuge tube and was used immediately for analysis of protein content and luciferase activity.
# Protein content of tumor lysate supernatant was determined using the BCA assay (Life Technologies Cat #23225). Luciferase activity of tumor lysate supernatant was determined by addition of Steady-Glo luminescence reagent (Promega, Cat #E2550) according to manufacturer's instructions and measurement on a Pherastar luminescence plate reader (BMG Labtech). Luciferase activity was normalized to protein content.
# [2] = system: β-catenin-TCF-mediated reporter transcription activity in Colo 205 cells; experiment: Colo 205 reporter assay (TCF/LEF luciferase); type: cell-based; details: Homo sapiens, COLO 205, 5 h, Colo 205 TCF/LEF luciferase reporter, five hours after addition of compound; read-out: TCF reporter Colo205 IC50
# In short: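 Luciferase signal from a TCF/LEF-driven reporter, stably integrated in Colo 205 colon cancer cells, was measured 5 h after compound addition.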
Compound,IC50 [2] [nM],Percent Remaining Activity at 8 hrs after Dosing [1] [%]
"Cc1nc(NCc2cnn(Cc3ccc(C(C)(F)F)nc3)c2)nc2c1NC(=O)[C@H](C(C)C)N2C [Compound 511, (S)-2-(((1-((6-(1,1-difluoroethyl)pyridin-3-yl)methyl)-1H-pyrazol-4-yl)methyl)amino)-7-isopropyl-4,8-dimethyl-7,8-dihydropteridin-6(5H)-one]",< 300,52
"Cc1nc(NCc2cnn(Cc3cnc(C(C)C)o3)c2)nc2c1NC(=O)[C@H](C(C)C)N2C [Compound 517, (S)-7-isopropyl-2-(((1-((2-isopropyloxazol-5-yl)methyl)-1H-pyrazol-4-yl)methyl)amino)-4,8-dimethyl-7,8-dihydropteridin-6(5H)-one]",< 300,93
"Cc1nc(NCc2cnn(Cc3ccc(C(F)(F)F)o3)c2)nc2c1NC(=O)[C@H](C(C)C)N2C [Compound 518, (S)-7-isopropyl-4,8-dimethyl-2-(((1-((5-(trifluoromethyl)furan-2-yl)methyl)-1H-pyrazol-4-yl)methyl)amino)-7,8-dihydropteridin-6(5H)-one]",< 300,21
"Cc1nc(N[C@@H]2CCc3nn(Cc4ccc(C(F)(F)F)nc4)cc32)nc2c1NC(=O)[C@H](C(C)C)N2C [Compound 522, (S)-7-isopropyl-4,8-dimethyl-2-(((R)-2-((6-(trifluoromethyl)pyridin-3-yl)methyl)-2,4,5,6-tetrahydrocyclopenta[c]pyrazol-4-yl)amino)-7,8-dihydropteridin-6(5H)-one]",< 300,91
"Cc1nc(N[C@H]2C[C@@H](Nc3cc(C(F)(F)F)ncn3)C2)nc2c1NC(=O)[C@H](C(C)C)N2C [Compound 528, (S)-7-isopropyl-4,8-dimethyl-2-((cis-3-((6-(trifluoromethyl)pyrimidin-4-yl)amino)cyclobutyl)amino)-7,8-dihydropteridin-6(5H)-one]",< 300,28
"COc1c(F)cc(C(=O)N2CC(Nc3nc(C)c4c(n3)N(C)[C@@H](C(C)C)C(=O)N4)C2)cc1F [Compound 542, (S)-2-((1-(3,5-difluoro-4-methoxybenzoyl)azetidin-3-yl)amino)-7-isopropyl-4,8-dimethyl-7,8-dihydropteridin-6(5H)-one]",< 300,22
"Cc1nc(NC2CN(C(=O)c3ccc(C(F)(F)F)nc3)C2)nc2c1NC(=O)[C@H](C(C)C)N2C [Compound 545, (S)-7-isopropyl-4,8-dimethyl-2-((1-(6-(trifluoromethyl)nicotinoyl)azetidin-3-yl)amino)-7,8-dihydropteridin-6(5H)-one]",300 to 1000,51
"Cc1nc(NC2CN(C(=O)c3ccc(Cl)nc3)C2)nc2c1NC(=O)[C@H](C(C)C)N2C [Compound 549, (S)-2-((1-(6-chloronicotinoyl)azetidin-3-yl)amino)-7-isopropyl-4,8-dimethyl-7,8-dihydropteridin-6(5H)-one]",1000 to 5000,30
"Cc1nc(N[C@H]2C[C@@H](Nc3ccc(C(F)(F)F)nn3)C2)nc2c1NC(=O)[C@H](C(C)C)N2C [Compound 556, (S)-7-isopropyl-4,8-dimethyl-2-((cis-3-((6-(trifluoromethyl)pyridazin-3-yl)amino)cyclobutyl)amino)-7,8-dihydropteridin-6(5H)-one]",< 300,62
"Cc1nc(N[C@H]2C[C@@H](Nc3cnc(C(F)(F)F)cn3)C2)nc2c1NC(=O)[C@H](C(C)C)N2C [Compound 557, (S)-7-isopropyl-4,8-dimethyl-2-((cis-3-((5-(trifluoromethyl)pyrazin-2-yl)amino)cyclobutyl)amino)-7,8-dihydropteridin-6(5H)-one]",< 300,20
"CO[C@H](C)[C@H]1C(=O)Nc2c(C)nc(NCc3cnn(Cc4ccc(OC(F)(F)F)nc4)c3)nc2N1C [Compound 565, (S)-7-((R)-1-methoxyethyl)-4,8-dimethyl-2-(((1-((6-(trifluoromethoxy)pyridin-3-yl)methyl)-1H-pyrazol-4-yl)methyl)amino)-7,8-dihydropteridin-6(5H)-one]",< 300,68
"Cc1nc(N[C@H]2C[C@@H](Nc3cnc(C(F)(F)F)cn3)C2)nc2c1NC(=O)[C@H](C)N2C [Compound 578, (S)-4,7,8-trimethyl-2-((cis-3-((5-(trifluoromethyl)pyrazin-2-yl)amino)cyclobutyl)amino)-7,8-dihydropteridin-6(5H)-one]",< 300,47
"COCC[C@H]1C(=O)Nc2c(C)nc(NCc3cnn(Cc4ccc(C(F)(F)F)nc4)c3)nc2N1C [Compound 589, (S)-7-(2-methoxyethyl)-4,8-dimethyl-2-(((1-((6-(trifluoromethyl)pyridin-3-yl)methyl)-1H-pyrazol-4-yl)methyl)amino)-7,8-dihydropteridin-6(5H)-one]",< 300,94
"Cc1nc(N[C@H]2C[C@@H](Nc3cnc(C#N)cn3)C2)nc2c1NC(=O)[C@H](C(C)C)N2C [Compound 602, 5-((cis-3-(((S)-7-isopropyl-4,8-dimethyl-6-oxo-5,6,7,8-tetrahydropteridin-2-yl)amino)cyclobutyl)amino)pyrazine-2-carbonitrile]",300 to 1000,57

# Continued, in another order:
IC50 [2] [nM],Compound,Percent Remaining Activity at 8 hrs after Dosing [1] [%]
< 300,"Cc1nc(NCc2cnn(Cc3ccnc(N(C)C)c3)c2)nc2c1NC(=O)[C@H](C1CC1)N2C [Compound 466, (S)-7-cyclopropyl-2-(((1-((2-(dimethylamino)pyridin-4-yl)methyl)-1H-pyrazol-4-yl)methyl)amino)-4,8-dimethyl-7,8-dihydropteridin-6(5H)-one]",101
< 300,"Cc1nc(NCc2cnn(Cc3cnc(Cl)s3)c2)nc2c1NC(=O)[C@H](C(C)C)N2C [Compound 491, (S)-2-(((1-((2-chlorothiazol-5-yl)methyl)-1H-pyrazol-4-yl)methyl)amino)-7-isopropyl-4,8-dimethyl-7,8-dihydropteridin-6(5H)-one]",41
< 300,"Cc1nc(NC2CN(C(=O)c3cc(F)c(F)c(F)c3)C2)nc2c1NC(=O)[C@H](C(C)C)N2C [Compound 496, (S)-7-isopropyl-4,8-dimethyl-2-((1-(3,4,5-trifluorobenzoyl)azetidin-3-yl)amino)-7,8-dihydropteridin-6(5H)-one]",17
< 300,"CO[C@H](C)[C@H]1C(=O)Nc2c(C)nc(NCc3cnn(Cc4ccc(Cl)nc4)c3)nc2N1C [Compound 499, (S)-2-(((1-((6-chloropyridin-3-yl)methyl)-1H-pyrazol-4-yl)methyl)amino)-7-((R)-1-methoxyethyl)-4,8-dimethyl-7,8-dihydropteridin-6(5H)-one]",31
< 300,"Cc1nc(NCc2cnn(Cc3ccc(C(F)F)nc3)c2)nc2c1NC(=O)[C@H](C(C)C)N2C [Compound 500, (S)-2-(((1-((6-(difluoromethyl)pyridin-3-yl)methyl)-1H-pyrazol-4-yl)methyl)amino)-7-isopropyl-4,8-dimethyl-7,8-dihydropteridin-6(5H)-one]",43
< 300,"Cc1nc(NCc2cnn(Cc3ccc(C(F)F)nc3)c2)nc2c1NC(=O)[C@H](C1CC1)N2C [Compound 501, (S)-7-cyclopropyl-2-(((1-((6-(difluoromethyl)pyridin-3-yl)methyl)-1H-pyrazol-4-yl)methyl)amino)-4,8-dimethyl-7,8-dihydropteridin-6(5H)-one]",53
